Reference: article PMC10460801 (Advanced Pharmaceutical Bulletin, 2022)
In brackets after ≈: the same amount, converted by molar mass. Read-outs that look alike come from different tables or passages of the source.

How the values were obtained:
[1] = cited from earlier work
[2] = Saturation shake-flask equilibrium solubility (48 h, 37 °C, UV-Vis); format: physicochemical; conditions: for solubility thermodynamic at 48 h: thermodynamic from solid, read-out: Css mean
Description: In this study dissolution test has been performed in the presence of amino acids within various media, including phosphate buffer solution (pH = 7.4), hydrochloric acid buffer (pH = 1.2), citrate buffer (pH = 6 and pH = 4.2), and distilled water (pH = 6.5). Briefly, for each buffer, a suitable amount of components was transferred to a 250 mL volumetric flask and then diluted with distilled water to the volume line. Finally, the pH of the solution was examined and set using a pH meter (Germany, Metrohm SWISS mode).
The saturation shake-flask method has been used for solubility studies. In brief, buffer solutions containing different concentrations of each amino acid were prepared. An excess amount of each drug was weighed in capped vials, then buffers alone and mixed with amino acids were added to the vials and the pH change was set again. After that, capped vials were shaken for about 48 hours on a shaker incubator (Korea, HYSC) at speed of 150 RPM and 37^ᵒC to reach equilibrium and result a saturated solution. After 48 hours the upper phase was separated and centrifuged. Filtered samples were diluted with buffer before reading their UV-Vis absorbance. Then the amount of solubility was calculated using a calibration curve considering the dilution coefficient. Each of the experiments was repeated three times.

[3] = cited from earlier work; remark: listed apart in the source
[4] = Citrate buffer, pH 6 before incubation, 48 h, 37 °C
[5] = Phosphate buffer, pH 7.4 before incubation, 48 h, 37 °C
[6] = Water, pH 6.5 before incubation, 48 h, 37 °C
[7] = aqueous buffer, Citrate buffer, pH 6 before incubation, 48 h, 37 °C
[8] = aqueous buffer, Phosphate buffer, pH 7.4 before incubation, 48 h, 37 °C
[9] = distilled water, pH 6.5, increasing GlucN
[10] = hydrochloric acid buffer, pH 1.2 before incubation, 48 h, 37 °C
[11] = Citrate buffer, pH 4.2 before incubation, 48 h, 37 °C

| Measured Css Sample 1 [2, 4] [µg/mL] | Measured Css Sample 2 [2, 4] [µg/mL] | Measured Css Sample 3 [2, 4] [µg/mL] | Measured Css Sample 1 [2, 5] [µg/mL] | Measured Css Sample 2 [2, 5] [µg/mL] | Measured Css Sample 3 [2, 5] [µg/mL] | solubility thermodynamic at 48 h [2, 7] [µg/mL] | solubility thermodynamic at 48 h [2, 8] [µg/mL] | change of drug solubility in the presence of GlucN ([2]; citrate buffer, pH 6) | change of drug solubility in the presence of GlucN [2, 9] | Structure (SMILES) | further results |
| --- | --- | --- | --- | --- | --- | --- | --- | --- | --- | --- | --- |
|  |  |  |  |  |  |  |  |  |  | N[C@H]1C(O)O[C@H](CO)[C@@H](O)[C@@H]1O (stereo partly drawn) [GlucN, Glucosamine] | water solubility [1]: 320000 µg/mL (≈ 1790 mM) |
| 5330 | 5050 | 5240 | 10510 | 10330 | 10510 | 5200 (≈ 25.2 mM) | 10400 (≈ 50.7 mM) | solubility increased | follows an upward pattern | CC(C)Cc1ccc(C(C)C(=O)O)cc1 (stereo not drawn) [IBU, Ibuprofen] | intrinsic water solubility ([1]; free acid): ~60 µg/mL; Measured Css Sample 1 [2, 6]: 3210 µg/mL; Measured Css Sample 2 [2, 6]: 3110 µg/mL; Measured Css Sample 3 [2, 6]: 3060 µg/mL; solubility thermodynamic at 48 h ([2]; distilled water, Water, pH 6.5 before incubation, 48 h, 37 °C): 3120 µg/mL (≈ 15.1 mM); Css mean [2, 10]: 800 µg/mL; Measured Css Sample 1 [2, 10]: 790 µg/mL; Measured Css Sample 2 [2, 10]: 820 µg/mL; Measured Css Sample 3 [2, 10]: 790 µg/mL; solubility thermodynamic at 48 h ([2]; simulated gastric fluid, hydrochloric acid buffer, pH 1.2 before incubation, 48 h, 37 °C): 800 µg/mL (≈ 3.88 mM); unionized fraction in the stomach [3]: 99.9% |
| 140 | 130 | 150 | 1250 | 1320 | 1320 | 140 (≈ 0.423 mM) | 1290 (≈ 3.89 mM) | improved the solubility | does not change significantly | CN1C(C(=O)Nc2ccccn2)=C(O)c2ccccc2S1(=O)=O [PXM, Piroxicam] | Measured Css Sample 1 [2, 11]: 280 µg/mL; Measured Css Sample 2 [2, 11]: 230 µg/mL; Measured Css Sample 3 [2, 11]: 250 µg/mL; solubility thermodynamic at 48 h ([2]; aqueous buffer, Citrate buffer, pH 4.2 before incubation, 48 h, 37 °C): 250 µg/mL (≈ 0.754 mM); change of drug solubility in the presence of GlucN ([2]; citrate buffer, pH 4.2): enhanced; change of drug solubility in the presence of LYS ([2]; citrate buffer, pH 4.2, Figure 3B): did not follow a specific trend; change of drug solubility in the presence of ARG ([2]; phosphate buffer, concentration above molar ratio 1:1 PXM/ARG, Figure 3A): solubility goes down |
